Tests used:
Assay type in all cases: functional, cell-based
Settings in all cases: Mus musculus
[1] = test system: L1210; assay: Effective concentration for growth inhibition of L1210 cells in culture in the presence of 10 uM of dThd
[2] = test system: L1210; assay: Effective concentration for growth inhibition of L1210 cells in culture in the presence of 10 uM of dUrd
[3] = test system: L1210; assay: Effective concentration to inhibit growth of L1210 cells in culture
[4] = test system: S49; assay: Effective concentration for growth inhibition of S49 cells in culture in the presence of 10 uM of dUrd
[5] = test system: S49; assay: Effective concentration to inhibit growth of S49 cells in culture

In the case of `O=c1[nH]c(=O)n([C@H]2C[C@H](O)[C@@H](CO)O2)cc1[N+](=O)[O-]`, the EC50 [1] is reported as > 3000 nM, the EC50 [2] is reported as 120 nM and the EC50 [3] is reported as 33 nM. For the same compound, the EC50 [4] was 60 nM and the EC50 [5] was 30 nM.
